pEC50: −log10 of the molar value.

The assay addresses T1, human parathyroid cell Ca^2+ receptor (hPCaR) (Homo sapiens, UniProt P41180).
T1 construct: expressed in transfected cells
T1 sequence (P41180 20-1078): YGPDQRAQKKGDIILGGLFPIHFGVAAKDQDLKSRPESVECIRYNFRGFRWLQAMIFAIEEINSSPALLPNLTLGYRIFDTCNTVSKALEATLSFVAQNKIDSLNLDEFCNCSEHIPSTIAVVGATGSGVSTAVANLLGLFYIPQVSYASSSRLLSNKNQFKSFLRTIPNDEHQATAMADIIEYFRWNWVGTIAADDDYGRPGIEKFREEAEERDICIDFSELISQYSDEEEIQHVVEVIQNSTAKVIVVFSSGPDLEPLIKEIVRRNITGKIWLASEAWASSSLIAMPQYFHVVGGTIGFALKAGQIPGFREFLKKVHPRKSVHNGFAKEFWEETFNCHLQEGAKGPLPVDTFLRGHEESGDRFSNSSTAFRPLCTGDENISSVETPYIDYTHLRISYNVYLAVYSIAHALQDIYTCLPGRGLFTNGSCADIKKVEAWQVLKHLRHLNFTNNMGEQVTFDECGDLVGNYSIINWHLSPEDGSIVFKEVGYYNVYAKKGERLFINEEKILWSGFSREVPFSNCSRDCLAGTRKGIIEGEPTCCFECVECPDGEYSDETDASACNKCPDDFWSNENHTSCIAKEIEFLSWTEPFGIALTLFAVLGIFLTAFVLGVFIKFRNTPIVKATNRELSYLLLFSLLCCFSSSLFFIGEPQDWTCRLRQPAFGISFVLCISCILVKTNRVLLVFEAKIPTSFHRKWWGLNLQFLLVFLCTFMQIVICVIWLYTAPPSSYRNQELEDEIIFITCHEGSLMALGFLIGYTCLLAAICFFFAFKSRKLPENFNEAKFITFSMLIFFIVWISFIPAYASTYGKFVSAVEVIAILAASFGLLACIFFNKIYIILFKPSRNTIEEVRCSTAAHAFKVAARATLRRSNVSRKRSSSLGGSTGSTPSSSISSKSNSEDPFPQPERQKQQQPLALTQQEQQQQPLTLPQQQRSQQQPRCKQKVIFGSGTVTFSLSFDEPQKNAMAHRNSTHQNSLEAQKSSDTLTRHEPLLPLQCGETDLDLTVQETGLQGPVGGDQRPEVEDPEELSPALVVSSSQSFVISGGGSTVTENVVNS
Nature of the assay: [Ca2+]i measurement with fluo-3 in HEK 293 4.0-7 cells stably transfected with hPCaR. Format: cell-based. The conditions noted are these: fluo-3 fluorescence (485/530 nm), effect on [Ca^2+]i. The method in brief:
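Cytosolic [Ca2+] was read as fluo-3 fluorescence (ex 485/em 530 nm) after compound addition to washed cells. Cells were hPCaR-transfected HEK 293 clone 7, dye-loaded 30 min at 37 °C with 2 μM fluo-3 acetoxymethyl ester in HEPES-buffered saline pH 7.45 containing 1 mM CaCl2 and 0.5% BSA.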

In turn, `COc1ccc([C@@H](C)NCc2cccc(-c3ccc(C)nc3)c2)cc1` [(1R)-1-(4-(methyloxy)phenyl)-N-((3-(6-methyl-3-yridinyl)phenyl)methyl)ethanamine] had a pEC50 of at least 5.00.

In turn, `COc1ccc([C@@H](C)NCc2cccc(-c3ccc4c(c3)OCO4)c2)cc1` [(1R)-N-((3-(1,3-benzodioxol-5-yl)phenyl)methyl)-1-(4-(methyloxy)phenyl)ethanamine] gave a pEC50 of at least 5.00.

Consider `COc1ccc(CN[C@H](C)c2ccccc2)cc1-c1ccc2oc(C)nc2c1` [(1R)-N-((3-(2-methyl-1,3-benzoxazol-5-yl)-4-(methyloxy)phenyl)methyl)-1-phenylethanamine], for which the pEC50 is at least 5.00.

Take `CCOc1ccc(-c2cc(CN[C@H](C)c3cccc4ccccc34)ccc2OC)cn1` [(1R)-N-((3-(6-(ethyloxy)-3-pyridinyl)-4-(methyloxy)phenyl)methyl)-1-(1-naphthalenyl)ethanamine]: the pEC50 is at least 5.00.

`COc1cccc([C@@H](C)NCc2ccc(OC)c(-c3cccc(C(=O)O)c3)c2)c1` [2′-(methyloxy)-5′-((((1R)-1-(3-(methyloxy)phenyl)ethyl)amino)methyl)-1,1′-biphenyl-3-carboxylic acid] gave a pEC50 of at least 5.00.

Regarding `COc1ccc([C@@H](C)NCc2cccc(-c3ccc(NC(=O)CCC(=O)O)nc3)c2)cc1` [4-((5-(3-((((1R)-1-(4-(methyloxy)phenyl)ethyl)amino)methyl)phenyl)-2-pyridinyl)amino)-4-oxobutanoic acid], the pEC50 is at least 5.00.

The molecule `COc1ccc(CN[C@H](C)c2ccc(C)cc2)cc1-c1nccs1` [(1R)-N-((4-(methyloxy)-3-(1,3-thiazol-2-yl)phenyl)methyl)-1-(4-methylphenyl)ethanamine] gave a pEC50 of at least 5.00.

`COc1cccc([C@@H](C)NCc2ccc(OC)c(-c3ccc4ccn(C)c4c3)c2)c1` [(1R)-N-((3-(1-methyl-1H-indol-6-yl)-4-(methyloxy)phenyl)methyl)-1-(3-(methyloxy)phenyl)ethanamine] had a pEC50 of at least 5.00.

In turn, `CCn1nc2ccc(-c3cc(CN[C@H](C)c4ccccc4)ccc3OC)cc2n1` [(1R)-N-((3-(2-ethyl-2H-1,2,3-benzotriazol-5-yl)-4-(methyloxy)phenyl)methyl)-1-phenylethanamine] had a pEC50 of at least 5.00.

For `COc1ccc(CN[C@H](C)c2cccc3ccccc23)cc1-c1cccc(C(F)(F)F)c1` [(1R)-N-((6-(methyloxy)-3′-(trifluoromethyl)-1,1′-biphenyl-3-yl)methyl)-1-(1-naphthalenyl)ethanamine], the pEC50 is at least 5.00.

Take `COc1ccc(CN[C@H](C)c2ccccc2)cc1N1CCCC1` [(1R)-N-((4-(methyloxy)-3-(1-pyrrolidinyl)phenyl)methyl)-1-phenylethanamine]: the pEC50 was at least 5.00.

On to `Cc1noc(-c2cccc(CN[C@H](C)c3ccccc3)c2)n1` [Example 453, (1R)-N-((3-(3-methyl-1,2,4-oxadiazol-5-yl)phenyl)methyl)-1-phenylethanamine], for which the pEC50 is at least 5.00.

`COc1ccc(CN[C@@H](C)c2ccccc2)cc1-c1ccc(C(F)(F)F)cc1` [(1S)-N-((6-(methyloxy)-4′-(trifluoromethyl)-1,1′-biphenyl-3-yl)methyl)-1-phenylethanamine]: the pEC50 is at least 5.00.

`COc1ccc(CN[C@H](C)c2ccccc2)cc1-c1ccc(=O)n(C)c1` [1-methyl-5-(2-(methyloxy)-5-((((1R)-1-phenylethyl)amino)methyl)phenyl)-2(1H)-pyridinone] gave a pEC50 of at least 5.00.

The molecule `COc1cccc([C@@H](C)NCc2ccc(OC)c(-c3ccc(OC(F)(F)F)cc3)c2)c1` [(1R)-1-(3-(methyloxy)phenyl)-N-((6-(methyloxy)-4′-((trifluoromethyl)oxy)-1,1′-biphenyl-3-yl)methyl)ethanamine] had a pEC50 of at least 5.00.

In turn, `C[C@@H](NCc1cccc(-c2nccs2)c1)c1cccc2ccccc12` [Example 217, (1R)-1-(1-naphthalenyl)-N-((3-(1,3-thiazol-2-yl)phenyl)methyl)ethanamine] showed a pEC50 of at least 5.00.

Molecule `COc1ccc(CN[C@H](C)c2cccc3ccccc23)cc1-c1ccc(OCCN2CCCC2)nc1` [(1R)-N-((4-(methyloxy)-3-(6-((2-(1-pyrrolidinyl)ethyl)oxy)-3-pyridinyl)phenyl)methyl)-1-(1-naphthalenyl)ethanamine] had a pEC50 of at least 5.00.

In the case of `COc1ccc(CN[C@H](C)c2cccc3ccccc23)cc1-n1cccc1` [(1R)-N-((4-(methyloxy)-3-(1H-pyrrol-1-yl)phenyl)methyl)-1-(1-naphthalenyl)ethanamine], the pEC50 is at least 5.00.

As to `COCCOc1ccc(CN[C@H](C)c2cccc(OC)c2)cc1-c1ccc(C(F)(F)F)cc1` [(1R)-N-((6-((2-(methyloxy)ethyl)oxy)-4′-(trifluoromethyl)-1,1′-biphenyl-3-yl)methyl)-1-(3-(methyloxy)phenyl)ethanamine], the pEC50 was at least 5.00.

On to `COc1ccc(CN[C@H](C)c2cccc3ccccc23)cc1-c1cncc(C(N)=O)c1` [5-(2-(methyloxy)-5-((((1R)-1-(1-naphthalenyl)ethyl)amino)methyl)phenyl)-3-pyridinecarboxamide], for which the pEC50 is at least 5.00.

Molecule `COc1cccc([C@@H](C)NCc2ccc(OC)c(-c3ccc(C(=O)N(C)C)cc3)c2)c1` [N,N-dimethyl-2′-(methyloxy)-5′-((((1R)-1-(3-(methyloxy)phenyl)ethyl)amino)methyl)-1,1′-biphenyl-4-carboxamide] had a pEC50 of at least 5.00.

As for `COc1ccc(CN[C@H](C)c2cccc3ccccc23)cc1-c1ccc(Cl)cc1` [(1R)-N-((4′-chloro-6-(methyloxy)-1,1′-biphenyl-3-yl)methyl)-1-(1-naphthalenyl)ethanamine], the negative-log EC50 (pEC50) was at least 5.00.

Molecule `C[C@@H](NCc1cccc(-c2ccoc2)c1)c1ccccc1` [Example 226, (1R)-N-((3-(3-furanyl)phenyl)methyl)-1-phenylethanamine] showed a pEC50 of at least 5.00.

In the case of `COc1ccc(CN[C@H](C)c2cccc(F)c2)cc1-c1ccccc1` [(1R)-1-(3-fluorophenyl)-N-((6-(methyloxy)-1,1′-biphenyl-3-yl)methyl)ethanamine], the pEC50 was at least 5.00.

On to `COc1ccc(CN[C@H](C)c2ccccc2)cc1-c1ccc(C(F)(F)F)cc1` [(1R)-N-((6-(methyloxy)-4′-(trifluoromethyl)-1,1′-biphenyl-3-yl)methyl)-1-phenylethanamine], for which the pEC50 is at least 5.00.

In turn, `COCCOc1ccc(CN[C@H](C)c2cccc3ccccc23)cc1-c1ccc(C(F)(F)F)cc1` [(1R)-N-((6-((2-(methyloxy)ethyl)oxy)-4′-(trifluoromethyl)-1,1′-biphenyl-3-yl)methyl)-1-(1-naphthalenyl)ethanamine] gave a pEC50 of at least 5.00.

The molecule `C[C@@H](NCc1cccc(-c2cncc(C(N)=O)c2)c1)c1cccc2ccccc12` [Example 460, 5-(3-((((1R)-1-(1-naphthalenyl)ethyl)amino)methyl)phenyl)-3-pyridinecarboxamide] gave a pEC50 of at least 5.00.

The molecule `COc1ccc(CN[C@H](C)c2cccc(Cl)c2)cc1-c1ccccc1` [(1R)-1-(3-chlorophenyl)-N-((6-(methyloxy)-1,1′-biphenyl-3-yl)methyl)ethanamine] gave a pEC50 of at least 5.00.

In turn, `COc1ccc(CN[C@H](C)c2cccc3ccccc23)cc1-c1ccc2ncccc2c1` [(1R)-N-((4-(methyloxy)-3-(6-quinolinyl)phenyl)methyl)-1-(1-naphthalenyl)ethanamine] had a pEC50 of at least 5.00.

Regarding `CC(=O)Nc1cccc(-c2cccc(CN[C@H](C)c3ccccc3)c2)c1` [N-(3′-((((1R)-1-phenylethyl)amino)methyl)-1,1′-biphenyl-3-yl)acetamide], the pEC50 is at least 5.00.

As to `COc1ccc(CN[C@H](C)c2ccccc2)cc1-c1ccc2c(cnn2C)c1` [(1R)-N-((3-(1-methyl-1H-indazol-5-yl)-4-(methyloxy)phenyl)methyl)-1-phenylethanamine], the pEC50 is at least 5.00.

Consider `COc1ccc(-c2cc(CN[C@H](C)c3cccc4ccccc34)ccc2NS(C)(=O)=O)cc1` [N-(4′-(methyloxy)-5-((((1R)-1-(1-naphthalenyl)ethyl)amino)methyl)-1,1′-biphenyl-2-yl)methanesulfonamide], for which the pEC50 was at least 5.00.

Take `COc1ccc(CN[C@H](C)c2ccccc2)cc1-c1cnc2c(ccn2C)c1` [(1R)-N-((4-(methyloxy)-3-(1-methyl-1H-pyrrolo[2,3-b]pyridin-5-yl)phenyl)methyl)-1-phenylethanamine]: the pEC50 was at least 5.00.

The term pEC50 denotes −log10 of the EC50, conventionally taken in molar units. Lower therefore signals a large EC50.

The record behind these values is patent publication US6908935B2, “Calcium receptor modulating agents” (Amgen Inc., priority 2002, dated 2005).
